Laboratory results as given in US20110171144A1, “Functional Micelles for Hard Tissue Targeted Delivery of Chemicals” (priority 2008, published 2011).
≈ marks a conversion by molar mass, not a printed value.

Legend:
[1] = Binding potential and rate of bone-targeting micelles on hydroxyapatite (HA)
Procedure: The solvent was evaporated in vacuum to yield a polymeric film on the wall of the flask. The thin polymeric film formed was then hydrated with a 10 mM phosphate buffered saline solution (PBS, pH 7.4) at 50° C. to set the micelles. The micelles were prepared as the method mentioned above for bone-targeting micelles: 0.9% […], 0.1% ALN-[…], 0.02% RB-[…]; for controls: 1% […], 0.02% RB-[…]). […] The mixtures were allowed to be gently agitated for 1, 5, 10, or 30 minutes at room temperature. […] The spectra of the supernatant was recorded on a UV-Visible spectrophotometer and compared with that of the initial micelle solution. Micelle containing RB-[…] but no ALN-[…] and RB were used as controls in this experiment.

[2] = Hornby et al. (2001); cited from earlier work
S. Mutans UA159 = assay: In vitro inhibition of S. Mutans biofilm growth on HA discs; type: cell-based, Streptococcus Mutans; conditions: 48 hours incubation, compared to controls, FIG. 3
Procedure: S. Mutans UA159 was used in this study. S. Mutans were stored frozen at −80° C. A fresh culture was prepared before each experiment. A single colony of S. Mutans was inoculated into 3 mL of THYE (Todd-Hewitt Yeast Extract) medium and allow to growth statically overnight at 37° C. with 5% CO2. The overnight culture was diluted to a density of 5×10^4 CFU/ml with chemically defined biofilm media (CDM) (Biswas et al. (2007) J. Bacteriol., 189:6521-6531).
Autoclaved HA discs (7 mm×1.8 mm) were incubated with different micelle solutions, a farnesol solution in ethanol, or CDM in a 24-well plate for 1 hour to achieve maximum loading. The discs were then removed from the wells and vortex washed twice with saline for 10 seconds. The discs were subsequently washed with culture media to remove unbounded micelle. For the farnesol ethanol solution group, discs were washed twice with ethanol and then washed with saline. The HA discs were then transferred to 1 mL of diluted S. Mutans, and cultured statically for 48 hours to allow biofilm growth at 37° C. with 5% CO2.
On day three post bacteria inoculation, the HA discs were dip-washed 3 times with THYE media to remove loosely attached bacteria and then placed in 1 mL of THYE media. The surfaces of HA discs were gently scraped with a sterile spatula to harvest adherent cells. […]

## CCN(CC)c1ccc2c(-c3ccccc3C(=O)O)c3ccc(=[N+](CC)CC)cc-3oc2c1.[Cl-] [RB, Rhodamine B]
[1]; 30 minutes incubation, FIG. 4A
  binding to HA (in words): slightly bound

## CC(C)=CCCC(C)=CCCC(C)=CCO [farnesol, 3,7,11-trimethyl-2,6,10-dodecatrien-1-ol]
[2]
  water solubility: 1200 µM (≈ 267 µg/mL)
S. Mutans UA159
  inhibition of S. Mutans biofilm formation on HA discs: did not show inhibition

## Pluronic® 123-alendronate conjugate [ALN-P123]
[1]; 10 minutes incubation, FIG. 4B
  bound to HA: 45%
[1]; 30 minutes incubation
  bound to HA (ultimate binding equilibrium): 55%
